Reference: patent US5629343A, “N-(mercaptoacyl) peptidyl derivatives as antidegenerative agents” (Merck & Co., Inc., priority 1995, dated 1997)
Where two headings read alike, the source gives them in different places.

Experiments:
stromelysin = stromelysin (Homo sapiens, UniProt P08254); experiment: Inhibition of stromelysin: hydrolysis of substance P, semicontinuous HPLC-based assay; assay type: biochemical; conditions: for IC50: substrate substance P
[1] = molecular target: T1, human rheumatoid synovial collagenase (Homo sapiens, UniProt P03956); conditions: cited from earlier work
T1 sequence (P03956 100-469): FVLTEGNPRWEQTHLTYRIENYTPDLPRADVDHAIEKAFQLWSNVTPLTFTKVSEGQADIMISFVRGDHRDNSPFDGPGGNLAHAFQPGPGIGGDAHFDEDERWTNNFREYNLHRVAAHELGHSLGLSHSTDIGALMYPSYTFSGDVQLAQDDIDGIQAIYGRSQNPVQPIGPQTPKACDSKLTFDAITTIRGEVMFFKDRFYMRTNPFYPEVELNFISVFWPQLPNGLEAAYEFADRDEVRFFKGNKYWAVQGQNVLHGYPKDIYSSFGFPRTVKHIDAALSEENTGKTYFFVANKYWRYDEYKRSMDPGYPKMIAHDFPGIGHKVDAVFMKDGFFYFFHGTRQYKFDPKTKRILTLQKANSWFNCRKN

[2] = molecular target: rabbit bone proteoglycanase (Oryctolagus cuniculus, UniProt P28863); conditions: cited from earlier work
rabbit bone proteoglycanase, sequence (P28863 101-478): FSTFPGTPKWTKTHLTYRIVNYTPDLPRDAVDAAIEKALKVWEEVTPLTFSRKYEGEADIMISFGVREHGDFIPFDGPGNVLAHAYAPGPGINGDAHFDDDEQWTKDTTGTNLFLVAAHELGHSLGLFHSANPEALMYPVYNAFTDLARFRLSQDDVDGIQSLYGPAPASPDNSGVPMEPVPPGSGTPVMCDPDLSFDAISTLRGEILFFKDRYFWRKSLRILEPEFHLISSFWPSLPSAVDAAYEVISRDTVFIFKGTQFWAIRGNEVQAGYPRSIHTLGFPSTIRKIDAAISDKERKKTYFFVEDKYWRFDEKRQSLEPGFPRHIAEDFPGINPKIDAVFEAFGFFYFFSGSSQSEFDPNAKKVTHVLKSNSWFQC

[3] = higher Rf isomer (diastereomer), read-out: IC50 ± S.E. Higher Rf isomer
[4] = lower Rf isomer (diastereomer), read-out: IC50 ± S.E. Lower Rf isomer

stromelysin, sequence (P08254 100-477): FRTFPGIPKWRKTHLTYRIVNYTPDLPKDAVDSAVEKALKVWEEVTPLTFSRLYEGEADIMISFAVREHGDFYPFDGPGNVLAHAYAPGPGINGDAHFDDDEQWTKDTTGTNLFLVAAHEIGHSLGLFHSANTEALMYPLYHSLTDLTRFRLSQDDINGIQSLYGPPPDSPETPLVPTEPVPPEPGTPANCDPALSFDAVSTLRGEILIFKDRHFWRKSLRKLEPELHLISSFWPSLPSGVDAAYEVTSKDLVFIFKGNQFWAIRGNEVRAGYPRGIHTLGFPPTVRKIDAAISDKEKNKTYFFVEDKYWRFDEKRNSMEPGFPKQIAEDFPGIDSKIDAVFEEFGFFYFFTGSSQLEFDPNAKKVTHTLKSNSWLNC

In the case of `CC(C)C[C@H](NC(=O)C(CS)CCc1ccccc1)C(N)=O` (stereo partly drawn) [Compound 1a, N-(2-Thiomethyl-4-phenylbutanoyl)-(L)-leucinamide], the IC50 (stromelysin; [3]) is reported as 3.3 ± 0.4 µM and the IC50 (stromelysin; [4]) is reported as 0.96 ± 0.1 µM.

For `CC(C)C[C@H](NC(=O)C(CS)CCc1ccccc1)C(=O)Nc1ccccc1` (stereo partly drawn) [Compound 1b, N-(2-Thiomethyl-4-phenylbutanoyl)-(L)-leucine, N-phenylamide], the IC50 (stromelysin; [3]) was 1.6 ± 0.5 µM and the IC50 (stromelysin; [4]) was 0.49 ± 0.1 µM.

`CC(C)C[C@H](NC(=O)C(CS)CCc1ccccc1)C(=O)NCc1ccccc1` (stereo partly drawn) [Compound 1c, N-(2-Thiomethyl-4-phenylbutanoyl)-(L)-leucine, N-benzylamide] showed an IC50 (stromelysin; [3]) of 7.3 ± 3.3 µM and an IC50 (stromelysin; [4]) of 2.5 ± 1.2 µM.

With `NC(=O)[C@H](Cc1ccccc1)NC(=O)C(CS)CCc1ccccc1` (stereo partly drawn) [Compound 1e, N-(2-Thiomethyl-4-phenylbutanoyl)-(L)-phenylalaninamide] the IC50 (stromelysin; [3]) was 3.1 ± 0.5 µM and the IC50 (stromelysin; [4]) was 1.9 ± 0.6 µM.

With `O=C(N[C@@H](Cc1ccccc1)C(=O)Nc1ccccc1)C(CS)CCc1ccccc1` (stereo partly drawn) [Compound 1f, N-(2-Thiomethyl-4-phenylbutanoyl)-(L)-phenylalanine, N-phenylamide] the IC50 (stromelysin; [3]) was 1.1 ± 0.3 µM and the IC50 (stromelysin; [4]) was 2.2 ± 0.8 µM.

In the case of `O=C(N[C@@H](Cc1ccccc1)C(=O)NCc1ccccc1)C(CS)CCc1ccccc1` (stereo partly drawn) [Compound 1g, N-(2-Thiomethyl-4-phenylbutanoyl)-(L)-phenylalanine, N-benzylamide], the “% inh. Higher Rf isomer” value (stromelysin; higher Rf isomer, @ 1.4 μM) is reported as 63 % inh and the “% inh. Lower Rf isomer” value (stromelysin; lower Rf isomer, @ 3.3 μM) is reported as 98 % inh.

For `O=C(O)CCNC(=O)[C@H](Cc1ccccc1)NC(=O)C(CS)CCc1ccccc1` (stereo partly drawn) [Compound 1h, N-(2-Thiomethyl-4-phenylbutanoyl)-(L)-phenylalanine-β-alanine], the IC50 (stromelysin; [3]) was 4.1 ± 0.35 µM.

In the case of `CNC(=O)[C@H](Cc1ccc(OC)cc1)NC(=O)[C@H](CC(C)C)NC(CCNC(=O)OCc1ccccc1)C(=O)O` (stereo partly drawn) [N-[3-(benzyloxycarbonyl)amino-1-carboxy-n-propyl]-L-leucyl-O-methyl-L-tyrosine, N-methylamide], the IC50 [1] is listed as 0.8 µM and the IC50 [2] is listed as 0.5 µM.
